# Experimental data reported in PubChem BioAssay (NCI).
#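 All cell lines were grown in 96-well plates and treated with compound for 48 hours. GI50: concentration for 50% inhibition of growth. TGI: total growth inhibition.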
# Columns and labels:
# Assay in all cases: inhibition of tumour cell growth, NCI panel, 48 h
# NCI-H522 lung = tested on: NCI-H522 lung
# SW-620 colon = tested on: SW-620 colon
# ACHN renal = tested on: ACHN renal
# 786-0 renal = tested on: 786-0 renal
# KM12 colon = tested on: KM12 colon
# UO-31 renal = tested on: UO-31 renal
# UACC-257 melanoma = tested on: UACC-257 melanoma
# UACC-62 melanoma = tested on: UACC-62 melanoma
# MCF7 breast = tested on: MCF7 breast
# IGROV1 ovarian = tested on: IGROV1 ovarian
# HT29 colon = tested on: HT29 colon
# HCC-2998 colon = tested on: HCC-2998 colon
# M14 melanoma = tested on: M14 melanoma
# RPMI-8226 leukemia = tested on: RPMI-8226 leukemia
# CAKI-1 renal = tested on: CAKI-1 renal
# SK-MEL-2 melanoma = tested on: SK-MEL-2 melanoma
# MDA-MB-435 = tested on: MDA-MB-435
# HS 578T breast = tested on: HS 578T breast
# COLO 205 colon = tested on: COLO 205 colon
# CCRF-CEM leukemia = tested on: CCRF-CEM leukemia
# U251 CNS = tested on: U251 CNS
# SNB-19 CNS = tested on: SNB-19 CNS
# A498 renal = tested on: A498 renal
# OVCAR-5 ovarian = tested on: OVCAR-5 ovarian
# MDA-MB-231 breast = tested on: MDA-MB-231 breast
# SF-539 CNS = tested on: SF-539 CNS
# LOX IMVI melanoma = tested on: LOX IMVI melanoma
# PC-3 prostate = tested on: PC-3 prostate
# HCT-15 colon = tested on: HCT-15 colon
# SF-268 CNS = tested on: SF-268 CNS
# TK-10 renal = tested on: TK-10 renal
# SK-MEL-28 melanoma = tested on: SK-MEL-28 melanoma
# NCI-H460 lung = tested on: NCI-H460 lung
# RXF 393 renal = tested on: RXF 393 renal
# HL-60(TB) leukemia = tested on: HL-60(TB) leukemia
# SK-OV-3 ovarian = tested on: SK-OV-3 ovarian
# SR leukemia = tested on: SR leukemia
# A549 NSCLC = tested on: A549 NSCLC
# MALME-3M melanoma = tested on: MALME-3M melanoma
# HOP-62 NSCLC = tested on: HOP-62 NSCLC
# SNB-75 CNS = tested on: SNB-75 CNS
# MOLT-4 leukemia = tested on: MOLT-4 leukemia
# NCI-H226 lung = tested on: NCI-H226 lung
# SF-295 CNS = tested on: SF-295 CNS
# OVCAR-8 ovarian = tested on: OVCAR-8 ovarian
# BT-549 breast = tested on: BT-549 breast
# DU-145 prostate = tested on: DU-145 prostate
# HCT-116 colon = tested on: HCT-116 colon
# OVCAR-4 ovarian = tested on: OVCAR-4 ovarian
# NCI-H23 lung = tested on: NCI-H23 lung
# NCI/ADR-RES ovarian = tested on: NCI/ADR-RES ovarian
# SN12C renal = tested on: SN12C renal
# OVCAR-3 ovarian = tested on: OVCAR-3 ovarian
# SK-MEL-5 melanoma = tested on: SK-MEL-5 melanoma
# K-562 leukemia = tested on: K-562 leukemia
# T-47D breast = tested on: T-47D breast
smiles,measurement,setting,value
Cn1cc(C2=C(c3cn(CCCO)c4ccccc34)C(=O)NC2=O)c2ccccc21,GI50,NCI-H522 lung,3.47 µM
same,TGI,NCI-H522 lung,13.2 µM
same,GI50,SW-620 colon,7.11 µM
same,TGI,SW-620 colon,> 25 µM
same,GI50,ACHN renal,4.99 µM
same,TGI,ACHN renal,19.8 µM
same,GI50,786-0 renal,7.03 µM
same,TGI,786-0 renal,> 22.8 µM
same,GI50,KM12 colon,1.77 µM
same,TGI,KM12 colon,16.8 µM
same,GI50,UO-31 renal,4.04 µM
same,TGI,UO-31 renal,14 µM
same,GI50,UACC-257 melanoma,8.15 µM
same,TGI,UACC-257 melanoma,24.7 µM
same,GI50,UACC-62 melanoma,5.56 µM
same,TGI,UACC-62 melanoma,12.3 µM
same,GI50,MCF7 breast,2.66 µM
same,TGI,MCF7 breast,17.4 µM
same,GI50,IGROV1 ovarian,6.04 µM
same,TGI,IGROV1 ovarian,16.6 µM
same,GI50,HT29 colon,5.4 µM
same,TGI,HT29 colon,> 19.3 µM
same,GI50,HCC-2998 colon,7.83 µM
same,TGI,HCC-2998 colon,> 25 µM
same,GI50,M14 melanoma,7.29 µM
same,TGI,M14 melanoma,> 25 µM
same,GI50,RPMI-8226 leukemia,5.97 µM
same,TGI,RPMI-8226 leukemia,15 µM
same,GI50,CAKI-1 renal,3.93 µM
same,TGI,CAKI-1 renal,16.9 µM
same,GI50,SK-MEL-2 melanoma,1.79 µM
same,TGI,SK-MEL-2 melanoma,4.72 µM
same,GI50,MDA-MB-435,2.34 µM
same,TGI,MDA-MB-435,> 25 µM
same,GI50,HS 578T breast,5.35 µM
same,TGI,HS 578T breast,17.3 µM
same,GI50,COLO 205 colon,5.39 µM
same,TGI,COLO 205 colon,16 µM
same,GI50,CCRF-CEM leukemia,3.01 µM
same,TGI,CCRF-CEM leukemia,18.2 µM
same,GI50,U251 CNS,6.15 µM
same,TGI,U251 CNS,19.3 µM
same,GI50,SNB-19 CNS,9.36 µM
same,TGI,SNB-19 CNS,> 25 µM
same,GI50,A498 renal,5.45 µM
same,TGI,A498 renal,13.9 µM
same,GI50,OVCAR-5 ovarian,11.4 µM
same,TGI,OVCAR-5 ovarian,> 25 µM
same,GI50,MDA-MB-231 breast,9.38 µM
same,TGI,MDA-MB-231 breast,> 25 µM
same,GI50,SF-539 CNS,4.57 µM
same,TGI,SF-539 CNS,11.4 µM
same,GI50,LOX IMVI melanoma,6.12 µM
same,TGI,LOX IMVI melanoma,> 21.4 µM
same,GI50,PC-3 prostate,6.8 µM
same,TGI,PC-3 prostate,24.6 µM
same,GI50,HCT-15 colon,3.33 µM
same,TGI,HCT-15 colon,> 25 µM
same,GI50,SF-268 CNS,6.11 µM
same,TGI,SF-268 CNS,17.6 µM
same,GI50,TK-10 renal,3.96 µM
same,TGI,TK-10 renal,13.3 µM
same,GI50,SK-MEL-28 melanoma,6.49 µM
same,TGI,SK-MEL-28 melanoma,18.8 µM
same,GI50,NCI-H460 lung,4.9 µM
same,TGI,NCI-H460 lung,12.5 µM
same,GI50,RXF 393 renal,3.87 µM
same,TGI,RXF 393 renal,9.56 µM
same,GI50,HL-60(TB) leukemia,6.1 µM
same,TGI,HL-60(TB) leukemia,15.3 µM
same,GI50,SK-OV-3 ovarian,4.29 µM
same,TGI,SK-OV-3 ovarian,> 22.1 µM
same,GI50,SR leukemia,2.71 µM
same,TGI,SR leukemia,> 19.1 µM
same,GI50,A549 NSCLC,5.68 µM
same,TGI,A549 NSCLC,17.5 µM
same,GI50,MALME-3M melanoma,8.52 µM
same,TGI,MALME-3M melanoma,21.3 µM
same,GI50,HOP-62 NSCLC,7 µM
same,TGI,HOP-62 NSCLC,19.5 µM
same,GI50,SNB-75 CNS,3.11 µM
same,TGI,SNB-75 CNS,12.3 µM
same,GI50,MOLT-4 leukemia,6.05 µM
same,TGI,MOLT-4 leukemia,> 20.7 µM
same,GI50,NCI-H226 lung,5.05 µM
same,TGI,NCI-H226 lung,19.1 µM
same,GI50,SF-295 CNS,5.11 µM
same,TGI,SF-295 CNS,> 17 µM
same,GI50,OVCAR-8 ovarian,6.4 µM
same,TGI,OVCAR-8 ovarian,> 21.1 µM
same,GI50,BT-549 breast,3.76 µM
same,TGI,BT-549 breast,11.5 µM
same,GI50,DU-145 prostate,6.97 µM
same,TGI,DU-145 prostate,> 22.5 µM
same,GI50,HCT-116 colon,4.62 µM
same,TGI,HCT-116 colon,> 17.7 µM
same,GI50,OVCAR-4 ovarian,4.63 µM
same,TGI,OVCAR-4 ovarian,> 20.7 µM
same,GI50,NCI-H23 lung,5.37 µM
same,TGI,NCI-H23 lung,18 µM
same,GI50,NCI/ADR-RES ovarian,7.23 µM
same,TGI,NCI/ADR-RES ovarian,> 22.8 µM
same,GI50,SN12C renal,5.25 µM
same,TGI,SN12C renal,> 25 µM
same,GI50,OVCAR-3 ovarian,6 µM
same,TGI,OVCAR-3 ovarian,> 19.5 µM
same,GI50,SK-MEL-5 melanoma,4.2 µM
same,TGI,SK-MEL-5 melanoma,10.8 µM
same,GI50,K-562 leukemia,5.61 µM
same,TGI,K-562 leukemia,> 25 µM
same,GI50,T-47D breast,4.94 µM
same,TGI,T-47D breast,18.6 µM
